Key:
[1] = human, in vivo
[2] = 600 mg to 1200, up to 6 months or more, tuberculosis treatment; cited from earlier work
[3] = Safety of Rifampin at 600 to 1200 mg daily; type: in vivo, human; settings: 600 mg to 1200 mg as a daily dose
Source text: Symptoms of overdose may include swelling of face or around eyes, itching over the entire body, orange or red discoloration of skin or eyes, nausea, vomiting, drowsiness, and loss of consciousness. If overdose is suspected, contact your local poison control center or emergency room immediately. One needs to take the prescribed amount for tanning to avoid any overdosing.
It has one of the best safety records taken for such a long time. It can be safely used for tanning in the doses of 600 to 1200 mg (dose depending on the weight) day orally for 3-5 days or till one obtains the desired tan without any untoward effects.

[4] = cited from earlier work
human skin = test: Skin tanning with oral Rifampin plus sun/UVR exposure (patient, volunteers, tanning booth users)
skin = settings: cited from earlier work
hepatic enzyme = settings: compared with Rifampin; cited from earlier work

CO[C@H]1/C=C/O[C@@]2(C)Oc3c(C)c(O)c4c(O)c(c(/C=N/N5CCN(C)CC5)c(O)c4c3C2=O)NC(=O)/C(C)=C\C=C\[C@H](C)[C@H](O)[C@@H](C)[C@@H](O)[C@@H](C)[C@H](OC(C)=O)[C@@H]1C [Rifampin]
time until urine and facial orange coloration disappears [1]: ≤ 24 h
adverse effects [2]: without any serious adverse effect
overdose effects [3]: haven't noticed any overdose effects
plasma levels, mean ([4]; 600 mg dose on an empty stomach): 7000 ng/mL
effect of antacids on absorption ([4]; antacids): do not affect absorption
administered drug excreted unchanged through the urine ([4]; in vivo): about 7%
excretion into breast milk ([4]; in vivo): excreted into breast milk
fraction metabolized by the liver microsomal enzymes ([4]; in vivo): Approximately 85%
time after which almost the entire drug is deacetylated ([4]; in vivo): about 6 hours
urinary elimination, share of the dose that is excreted ([4]; in vivo): about 30%
time to peak plasma concentrations ([4]; orally administered): 1 to 2 h
peak blood concentration when taken with a meal ([4]; taken with a meal): 36%
dose eliminated within 24 hours ([4]; within 24 hours): Approximately 50%
tanning effect by skin type (human skin; […]): more pronounced in brown skinned
dandruff production (human skin; experimental test individuals using this method of tanning): less dandruff production
skin staining of tuberculosis patients (human skin; use for many months with exposure to Sun light): became much darkly stained
tanning result (human skin; volunteers and tanning booth users, minimum UVR exposure): good natural looking long lasting tanning

O=C[C@H](O)[C@H](O)[C@H](O)CO [D-ribose]
effect on wound surface (skin; applied directly to a wound): caused the surface to become brown
effect on tanning (skin; in water applied to the skin): showed no such effect on tanning

CO[C@H]1/C=C/O[C@@]2(C)Oc3c(C)c(O)c4c(c3C2=O)C2=NC3(CCN(CC(C)C)CC3)NC2=C(NC(=O)/C(C)=C\C=C\[C@H](C)[C@H](O)[C@@H](C)[C@@H](O)[C@@H](C)[C@H](OC(C)=O)[C@@H]1C)C4=O [Rifabutin]
hepatic enzyme induction (hepatic enzyme): less hepatic enzyme induction

From patent US20110020252A1, “METHOD OF LONG LASTING HUMAN SKIN TANNING” (priority 2010, published 2011)
